Source: patent publication US7186831B2, “5-halo-2-alkyl[1,2,4]triazolo[1,5-a]pyrimidin-7-amines” (priority 2001, dated 2007)

Assay: log P by HPLC
Type: physicochemical
Settings: HPLC, gradient method, acetonitrile/0.1% aqueous phosphoric acid; EEC directive 79/831 Annex V. A8

SMILES | logP
CC(C)CN(C)c1c(-c2ccc(F)cc2F)c(Cl)nc2nc(C3CC3)nn12 [compound 668] | 4.07
COCCN(C)c1c(-c2ccc(F)cc2F)c(Cl)nc2nc(C3CC3)nn12 [compound 669] | 3.16
C=C(C)CN(C)c1c(-c2ccc(F)cc2F)c(Cl)nc2nc(C3CC3)nn12 [compound 670] | 4.05
CCCCN(C)c1c(-c2ccc(F)cc2F)c(Cl)nc2nc(C3CC3)nn12 [compound 671] | 4.21
Fc1cc(F)c(-c2c(Cl)nc3nc(C4CC4)nn3c2NCC(F)(F)F)c(F)c1 [compound 672] | 3.25
CC1CCCCN1c1c(-c2c(F)cc(F)cc2F)c(Cl)nc2nc(C3CC3)nn12 (stereo not drawn) [compound 674] | 4.6
Fc1cc(F)c(-c2c(Cl)nc3nc(C4CC4)nn3c2N2CCC(F)CC2)c(F)c1 [compound 675] | 3.68
CC(C)CN(C)c1c(-c2c(F)cccc2F)c(Cl)nc2nc(C3CC3)nn12 [compound 676] | 4.08
C=C(C)CN(C)c1c(-c2c(F)cccc2F)c(Cl)nc2nc(C3CC3)nn12 [compound 677] | 3.98
CC1CCCN1c1c(-c2c(F)cccc2F)c(Cl)nc2nc(C3CC3)nn12 (stereo not drawn) [compound 678] | 3.68
Fc1cccc(F)c1-c1c(Cl)nc2nc(C3CC3)nn2c1N1CCCC1 [compound 679] | 3.25
CC1CCCCN1c1c(-c2c(F)cccc2F)c(Cl)nc2nc(C3CC3)nn12 (stereo not drawn) [compound 680] | 3.17
CC1CCN(c2c(-c3c(F)cccc3F)c(Cl)nc3nc(C4CC4)nn23)CC1 [compound 681] | 4.34
Fc1cccc(F)c1-c1c(Cl)nc2nc(C3CC3)nn2c1N1CCCCC1 [compound 682] | 3.9
Fc1cccc(F)c1-c1c(Cl)nc2nc(C3CC3)nn2c1N1CCOCC1 [compound 683] | 2.78
Cc1nc2nc(Cl)c(-c3c(F)cccc3F)c(NC(C)C(C)C)n2n1 (stereo not drawn) [compound 684] | 3.18
Cc1nc2nc(Cl)c(-c3c(F)cccc3F)c(NC(C)C(C)(C)C)n2n1 (stereo not drawn) [compound 685] | 3.56
Cc1nc2nc(Cl)c(-c3c(F)cc(F)cc3F)c(N3OCCCC3C)n2n1 (stereo not drawn) [compound 686] | 3.42
CCNc1c(-c2ccc(F)cc2F)c(Cl)nc2nc(C)nn12 [compound 687] | 3.08
Cc1nc2nc(Cl)c(-c3c(F)cccc3Cl)c(NC(C)C(C)C)n2n1 (stereo not drawn) [compound 688] | 3.43
Fc1ccc(-c2c(Cl)nc3nc(C4CC4)nn3c2N2CCCCO2)c(F)c1 [compound 690] | 3.56

SMILES | logP
Cc1nc2nc(Cl)c(-c3ccc(F)cc3Cl)c(N3CCCCN3)n2n1 [compound 691] | 2.94
Cc1nc2nc(Cl)c(-c3c(F)cc(F)cc3F)c(N3CCCCN3)n2n1 [compound 692] | 2.83
Cc1nc2nc(Cl)c(-c3ccc(F)cc3F)c(N3OCCC3C)n2n1 (stereo not drawn) [compound 695] | 2.79
Cc1nc2nc(Cl)c(-c3ccccc3Cl)c(NC(C)C(C)C)n2n1 (stereo not drawn) [compound 696] | 3.46
Cc1nc2nc(Cl)c(-c3ccc(F)cc3Cl)c(NCC(F)F)n2n1 [compound 697] | 2.54
CC(C)CN(C)c1c(-c2c(F)cccc2Cl)c(Cl)nc2nc(C3CC3)nn12 [compound 698] | 4.32
COCCN(C)c1c(-c2c(F)cccc2Cl)c(Cl)nc2nc(C3CC3)nn12 [compound 699] | 3.3
C=C(C)CN(C)c1c(-c2c(F)cccc2Cl)c(Cl)nc2nc(C3CC3)nn12 [compound 700] | 4.21
CCN(CCOC)c1c(-c2c(F)cccc2Cl)c(Cl)nc2nc(C3CC3)nn12 [compound 701] | 3.66
CC1CCCN1c1c(-c2c(F)cccc2Cl)c(Cl)nc2nc(C3CC3)nn12 (stereo not drawn) [compound 702] | 3.94
Fc1cccc(Cl)c1-c1c(Cl)nc2nc(C3CC3)nn2c1N1CCCC1C(F)(F)F (stereo not drawn) [compound 703] | 4.1
Fc1cccc(Cl)c1-c1c(Cl)nc2nc(C3CC3)nn2c1N1CCCC1 [compound 704] | 3.55
CC1CCCCN1c1c(-c2c(F)cccc2Cl)c(Cl)nc2nc(C3CC3)nn12 (stereo not drawn) [compound 705] | 4.54
CC1CCN(c2c(-c3c(F)cccc3Cl)c(Cl)nc3nc(C4CC4)nn23)CC1 [compound 706] | 4.59
Fc1cccc(Cl)c1-c1c(Cl)nc2nc(C3CC3)nn2c1N1CCC(F)CC1 [compound 707] | 3.63
Fc1cccc(Cl)c1-c1c(Cl)nc2nc(C3CC3)nn2c1N1CCCCC1 [compound 708] | 4.19
Fc1cccc(Cl)c1-c1c(Cl)nc2nc(C3CC3)nn2c1N1CCOCC1 [compound 709] | 3.05
CCNc1c(-c2ccc(F)cc2F)c(Cl)nc2nc(C3CC3)nn12 [compound 712] | 2.97
N#CCNc1c(-c2ccc(F)cc2F)c(Cl)nc2nc(C3CC3)nn12 [compound 713] | 2.42
CN(CCCl)c1c(-c2ccc(F)cc2F)c(Cl)nc2nc(C3CC3)nn12 [compound 721] | 3.5

Further lines, results first:

logP | SMILES
3.17 | Fc1ccc(-c2c(Cl)nc3nc(C4CC4)nn3c2NCC(F)(F)F)c(F)c1 [compound 714]
4.08 | Fc1ccc(-c2c(Cl)nc3nc(C4CC4)nn3c2NC2CCCCC2C(F)(F)F)c(F)c1 (stereo not drawn) [compound 715]
4.31 | Fc1ccc(-c2c(Cl)nc3nc(C4CC4)nn3c2NC2CC(C(F)(F)F)CC(C(F)(F)F)C2)c(F)c1 (stereo not drawn) [compound 716]
3.28 | CCOC(=O)CN(C)c1c(-c2ccc(F)cc2F)c(Cl)nc2nc(C3CC3)nn12 [compound 717]
2.79 | CN(CCC#N)c1c(-c2ccc(F)cc2F)c(Cl)nc2nc(C3CC3)nn12 [compound 718]
2.79 | CN(CC#N)c1c(-c2ccc(F)cc2F)c(Cl)nc2nc(C3CC3)nn12 [compound 719]
2.95 | COC(=O)CN(C)c1c(-c2ccc(F)cc2F)c(Cl)nc2nc(C3CC3)nn12 [compound 720]
3.06 | CN(C)c1c(-c2ccc(F)cc2F)c(Cl)nc2nc(C3CC3)nn12 [compound 722]
1.65 | CCN(CCN(C)C)c1c(-c2ccc(F)cc2F)c(Cl)nc2nc(C3CC3)nn12 [compound 723]
1.47 | CCN(CCN)c1c(-c2ccc(F)cc2F)c(Cl)nc2nc(C3CC3)nn12 [compound 724]
3.07 | CCN(CCC#N)c1c(-c2ccc(F)cc2F)c(Cl)nc2nc(C3CC3)nn12 [compound 725]
1.61 | CCCN(CCCN)c1c(-c2ccc(F)cc2F)c(Cl)nc2nc(C3CC3)nn12 [compound 726]
3.84 | CCOC(=O)CN(c1c(-c2ccc(F)cc2F)c(Cl)nc2nc(C3CC3)nn12)C1CC1 [compound 727]
2.17 | CC(=O)NC1CCN(c2c(-c3ccc(F)cc3F)c(Cl)nc3nc(C4CC4)nn23)C1 (stereo not drawn) [compound 728]
4.14 | Fc1ccc(-c2c(Cl)nc3nc(C4CC4)nn3c2N2CCCC2C(F)(F)F)c(F)c1 (stereo not drawn) [compound 729]
3.07 | CC(=O)C1CCN(c2c(-c3ccc(F)cc3F)c(Cl)nc3nc(C4CC4)nn23)CC1 [compound 730]
3.38 | COC(=O)C1CCN(c2c(-c3ccc(F)cc3F)c(Cl)nc3nc(C4CC4)nn23)CC1 [compound 731]
4.08 | Fc1ccc(-c2c(Cl)nc3nc(C4CC4)nn3c2N2CCC(Br)CC2)c(F)c1 [compound 732]
3.92 | COC(=O)C1CCCCN1c1c(-c2ccc(F)cc2F)c(Cl)nc2nc(C3CC3)nn12 (stereo not drawn) [compound 733]
